Test results: patent US6506772B1, “Substituted [1,2,4]triazolo[1,5a]pyridine derivatives with activity as adenosine receptor ligands” (Hoffmann-La Roche Inc., priority 2000, dated 2003)
Where two headings read alike, the source gives them in different places.

Assays:
[1] = biological target: T1, human adenosine A2A receptor (Homo sapiens, UniProt P29274); assay: Human adenosine A2A receptor [3H]-SCH-58261 binding assay
T1 construct: expressed in transfected cells; host or cells: CHO cells, Semliki Forest virus expression system; membrane preparation

[2] = biological target: T2, HA1 adenosine receptor (Homo sapiens, UniProt P30542); assay: Human adenosine A1 receptor affinity (Ki hA1); type: binding
T2 sequence (P30542 1-326): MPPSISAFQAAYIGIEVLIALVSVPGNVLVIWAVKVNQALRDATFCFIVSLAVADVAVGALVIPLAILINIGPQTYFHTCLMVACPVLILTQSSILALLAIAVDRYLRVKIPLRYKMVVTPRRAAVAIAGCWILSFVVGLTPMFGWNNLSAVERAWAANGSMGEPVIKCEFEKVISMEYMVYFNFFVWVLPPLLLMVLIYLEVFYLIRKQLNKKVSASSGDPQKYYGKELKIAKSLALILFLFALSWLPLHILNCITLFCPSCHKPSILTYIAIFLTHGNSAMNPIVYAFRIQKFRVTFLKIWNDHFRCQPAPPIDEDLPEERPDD

[3] = affinity to human adenosine A2A receptor, read-out: Ki HA2A
[4] = calculated ratio of the affinity to the HA1 receptor to the HA2a receptor
[5] = affinity to human adenosine A1 receptor
[6] = recombinant human A2A in CHO cell membranes, [3H]-SCH-58261, Cheng-Prussoff, read-out: Ki hA2A

T1 sequence (P29274 whole entry): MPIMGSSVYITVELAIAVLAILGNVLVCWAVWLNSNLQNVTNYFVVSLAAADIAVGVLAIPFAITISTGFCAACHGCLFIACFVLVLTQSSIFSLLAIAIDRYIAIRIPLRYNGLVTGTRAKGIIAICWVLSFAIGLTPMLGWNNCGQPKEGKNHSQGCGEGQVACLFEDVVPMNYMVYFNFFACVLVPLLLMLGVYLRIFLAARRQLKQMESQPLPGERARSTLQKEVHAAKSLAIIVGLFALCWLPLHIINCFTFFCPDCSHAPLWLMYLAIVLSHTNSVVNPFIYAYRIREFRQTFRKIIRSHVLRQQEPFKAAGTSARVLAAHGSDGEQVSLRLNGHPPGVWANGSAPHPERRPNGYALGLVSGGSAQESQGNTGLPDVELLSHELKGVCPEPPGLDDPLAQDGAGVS

Structure (SMILES) | Ki [1, 3] [nM] | selectivity (A1/A2a) [1, 4] | Ki [2, 5] [nM] | selectivity (A1/A2a) ([1]; ratio KiHA1 divided by KiHA2A) | Ki [1, 6] [nM] | Ki [2] [nM]
CCN(Cc1ccncc1)C(=O)c1cc(N)n2nc(-c3ccc(Br)o3)nc2c1 [Example 314, 5-Amino-2-(5-bromo-furan-2-yl)-[1,2,4]triazolo[1,5-a]pyridine-7-carboxylic acid ethyl-pyridin-4-ylmethyl-amide] | 1.2 | 49.3 | 59.1 |  |  | 
CN(C(=O)c1cc(N)n2nc(-c3ccc(Cl)o3)nc2c1)C1CCCCC1 [Example 242, 5-Amino-2-(5-chloro-furan-2-yl)-[1,2,4]triazolo[1,5-a]pyridine-7-carboxylic acid cyclohexyl-methyl-amide] | 6.5 | 19.0 | 124 |  |  | 
Nc1cc(C(=O)NC2CCCCC2)cc2nc(-c3ccccc3)nn12 [Example 147, 5-Amino-2-phenyl-[1,2,4]triazolo[1,5-a]pyridine-7-carboxylic acid cyclohexylamide] | 140 | 3.2 | 453 |  |  | 
COc1ccccc1CCNC(=O)c1cc(N)n2nc(-c3ccccn3)nc2c1 [Example 45, 5-Amino-2-pyridin-2-yl-[1,2,4]triazolo[1,5-a]pyridine-7-carboxylic acid [2-(2-methoxy-phenyl)-ethyl]-amide] | 53.5 | 2.4 | 128 |  |  | 
CC(=O)N(C)C1CCN(C(=O)c2cc(N)n3nc(-c4ccc(Br)o4)nc3c2)C1 (stereo not drawn) [Example 392, N-{1-[5-Amino-2-(5-bromo-furan-2-yl)-[1,2,4]triazolo[1,5-a]pyridine-7-carbonyl]-pyrrolidin-3-yl}-N-methyl-acetamide] |  |  |  | 51.2 | 34.7 | 1780
Cc1ccc(-c2nc3cc(C(=O)N(C)C4CCCCC4)cc(N)n3n2)s1 [Example 113, 5-Amino-2-(5-methyl-thiophen-2-yl)-[1,2,4]triazolo[1,5-a]pyridine-7-carboxylic acid cyclohexyl-methyl-amide] | 17.2 | 17.8 | 307 |  |  | 
Nc1cc(C(=O)NCc2ccc(F)cc2)cc2nc(-c3nccs3)nn12 [Example 206, 5-Amino-2-thiazol-2-yl-[1,2,4]triazolo[1,5-a]pyridine-7-carboxylic acid 4-fluoro-benzylamide] | 126 | 5.2 | 657 |  |  | 
COc1ccc(-c2nc3cc(C(=O)NC4CCCCC4)cc(N)n3n2)s1 [Example 64, 5-Amino-2-(5-methoxy-thiophen-2-yl)-[1,2,4]triazolo[1,5-a]pyridine-7-carboxylic acid cyclohexylamide] | 227 | 1.0 | 223 |  |  | 
CCCCNC(=O)c1cc(N)n2nc(-c3ccc(Br)o3)nc2c1 [Example 131, 5-Amino-2-(5-bromo-furan-2-yl)-[1,2,4]triazolo[1,5-a]pyridine-7-carboxylic acid butylamide] | 19.4 | 17.8 | 345 |  |  | 
CCN(C(=O)c1cc(N)n2nc(-c3nccs3)nc2c1)C1CCCCC1 [Example 383, 5-Amino-2-thiazol-2-yl-[1,2,4]triazolo[1,5-a]pyridine-7-carboxylic acid cyclohexyl-ethyl-amide] |  |  |  | 13.9 | 81.2 | 1130
CC(NC(=O)c1cc(N)n2nc(-c3ccoc3)nc2c1)c1ccccc1 (stereo not drawn) [Example 225, 5-Amino-2-furan-3-yl-[1,2,4]triazolo[1,5-a]pyridine-7-carboxylic acid (1-phenyl-ethyl)-amide] | 103 | 1.2 | 125 |  |  | 
CCN(C(=O)c1cc(N)n2nc(-c3nccs3)nc2c1)C(C)C [Example 288, 5-Amino-2-thiazol-2-yl-[1,2,4]triazolo[1,5-a]pyridine-7-carboxylic acid ethyl-isopropyl-amide] | 66.6 | 21.0 | 1400 |  |  | 
CCN(CC)C(=O)c1cc(N)n2nc(-c3ccc(Cl)o3)nc2c1 [Example 233, 5-Amino-2-(5-chloro-furan-2-yl)-[1,2,4]triazolo[1,5-a]pyridine-7-carboxylic acid diethylamide] | 7.2 | 38.7 | 280 |  |  | 
Cc1ccc(-c2nc3cc(C(=O)NC4CCCCC4)cc(N)n3n2)s1 [Example 195, 5-Amino-2-(5-methyl-thiophen-2-yl)-[1,2,4]triazolo[1,5-a]pyridine-7-carboxylic acid cyclohexylamide] | 109 | 1.3 | 145 |  |  | 
COc1ccc(CNC(=O)c2cc(N)n3nc(-c4nccs4)nc3c2)cc1OC [Example 208, 5-Amino-2-thiazol-2-yl-[1,2,4]triazolo[1,5-a]pyridine-7-carboxylic acid 3,4-dimethoxy-benzylamide] | 316 | 5.9 | 1860 |  |  | 
C#CCN(C)C(=O)c1cc(N)n2nc(-c3ccccn3)nc2c1 [Example 407, 5-Amino-2-pyridin-2-yl-[1,2,4]triazolo[1,5-a]pyridine-7-carboxylic acid methyl-prop-2-ynyl-amide] |  |  |  | 26.5 | 69.1 | 1830
COc1ccc(-c2nc3cc(C(=O)NCc4ccccc4Br)cc(N)n3n2)s1 [Example 52, 5-Amino-2-(5-methoxy-thiophen-2-yl)-[1,2,4]triazolo[1,5-a]pyridine-7-carboxylic acid 2-bromo-benzylamide] | 108 | 0.8 | 85.7 |  |  | 
CN(Cc1ccccc1)C(=O)c1cc(N)n2nc(-c3ccccn3)nc2c1 [Example 32, 5-Amino-2-pyridin-2-yl-[1,2,4]triazolo[1,5-a]pyridine-7-carboxylic acid benzyl-methyl-amide] | 28.6 | 10.1 | 288 |  |  | 
Cc1ccc(-c2nc3cc(C(=O)N(Cc4ccccc4)C(C)C)cc(N)n3n2)o1 [Example 141, 5-Amino-2-(5-methyl-furan-2-yl)-[1,2,4]triazolo[1,5-a]pyridine-7-carboxylic acid benzyl-isopropyl-amide] | 5.9 | 20.8 | 123 |  |  | 
Cc1ccc(-c2nc3cc(C(=O)NC(C)c4ccccc4)cc(N)n3n2)s1 (stereo not drawn) [Example 198, 5-Amino-2-(5-methyl-thiophen-2-yl)-[1,2,4]triazolo[1,5-a]pyridine-7-carboxylic acid (1-phenyl-ethyl)-amide] | 174 | 0.6 | 112 |  |  | 
CC(C)CN(CC(C)C)C(=O)c1cc(N)n2nc(-c3nccs3)nc2c1 [Example 405, 5-Amino-2-thiazol-2-yl-[1,2,4]triazolo[1,5-a]pyridine-7-carboxylic acid diisobutylamide] |  |  |  | 23.2 | 43.3 | 1000
COc1ccccc1CNC(=O)c1cc(N)n2nc(-c3ccc(C)o3)nc2c1 [Example 214, 5-Amino-2-(5-methyl-furan-2-yl)-[1,2,4]triazolo[1,5-a]pyridine-7-carboxylic acid 2-methoxy-benzylamide] | 14.6 | 7.6 | 111 |  |  | 
CCCCCN(C)C(=O)c1cc(N)n2nc(-c3ccc(Br)o3)nc2c1 [Example 278, 5-Amino-2-(5-bromo-furan-2-yl)-[1,2,4]triazolo[1,5-a]pyridine-7-carboxylic acid methyl-pentyl-amide] | 5.6 | 16.8 | 94.3 |  |  | 
Cc1ccc(-c2nc3cc(C(=O)NC(C)c4ccccc4)cc(N)n3n2)o1 (stereo not drawn) [Example 211, 5-Amino-2-(5-methyl-furan-2-yl)-[1,2,4]triazolo[1,5-a]pyridine-7-carboxylic acid (1-phenyl-ethyl)-amide] | 57.3 | 5.2 | 298 |  |  | 
Cc1ccc(-c2nc3cc(C(=O)NCc4ccccc4)cc(N)n3n2)s1 [Example 197, 5-Amino-2-(5-methyl-thiophen-2-yl)-[1,2,4]triazolo[1,5-a]pyridine-7-carboxylic acid benzylamide] | 178 | 0.5 | 90.3 |  |  | 
CCCN(CC1CC1)C(=O)c1cc(N)n2nc(-c3ccc(Br)o3)nc2c1 [Example 298, 5-Amino-2-(5-bromo-furan-2-yl)-[1,2,4]triazolo[1,5-a]pyridine-7-carboxylic acid cyclopropylmethyl-propyl-amide] | 2.2 | 42.7 | 94 |  |  | 
C=CCN(C(=O)c1cc(N)n2nc(-c3nccs3)nc2c1)C1CCCC1 [Example 382, 5-Amino-2-thiazol-2-yl-[1,2,4]triazolo[1,5-a]pyridine-7-carboxylic acid allyl-cyclopentyl-amide] |  |  |  | 13.4 | 54.6 | 729
COCCN(CCOC)C(=O)c1cc(N)n2nc(-c3ccc(Br)o3)nc2c1 [Example 305, 5-Amino-2-(5-bromo-furan-2-yl)-[1,2,4]triazolo[1,5-a]pyridine-7-carboxylic acid bis-(2-methoxy-ethyl)-amide] | 5.2 | 26.8 | 139 |  |  | 
CCN(Cc1ccccc1)C(=O)c1cc(N)n2nc(-c3ccc(OC)s3)nc2c1 [Example 59, 5-Amino-2-(5-methoxy-thiophen-2-yl)-[1,2,4]triazolo[1,5-a]pyridine-7-carboxylic acid benzyl-ethyl-amide] | 42.9 | 2.5 | 106 |  |  | 
